Measured values from patent US20240417411A1, “COMPOUNDS AND METHODS FOR TREATMENT OF VIRAL INFECTIONS” (priority 2023, published 2024).
Counter-ions that a name gives are not always drawn. Like-named read-outs stand apart in the source and are kept apart here.

Legend:
SARS-CoV2-NLuc = experiment: microbe, parasite or virus in culture; type: cell-based, SARS Coronavirus 2; conditions: Severe acute respiratory syndrome coronavirus 2, 48 h, read-out: SARS-CoV2 EC50 (nM)
RSV-Luc5 = experiment: microbe, parasite or virus in culture; type: cell-based; conditions: human respiratory syncytial virus, NHBE, 72 h, read-out: RSV NHBE EC50 (nM)
in vitro [1] = type: cell-based; conditions: human
Description: Example C: CC50 MT4 Cytotoxicity of the compounds was determined in uninfected cells using the cell viability reagent in a similar fashion as described before for other cell types ([…] et al., Antimicrob Agents Chemother. 2008,52(2):655-65). […] Cells were cultured for 4-5 days at 37° C. Following the incubation, the cells were allowed to equilibrate to 25° C., and cell viability was determined by adding Cell-Titer Glo viability reagent. The mixture was incubated for 10 min, and the luminescence signal was quantified using an Envision plate reader. Untreated cell and cells treated at 2 μM puromycin (Sigma, St. Louis, MO) serve as 100% and 0% cell viability control, respectively. The percent of cell viability was calculated for each tested compound concentration relative to the 0% and 100% controls and the CC50 value was determined by non-linear regression as a compound concentration reducing the cell viability by 50%.

in vitro [2] = type: in vitro ADME; conditions: human, s9, pH 7.4
Description: Example D: GI S9 Stability […] The S9 metabolic reactions were initiated by the addition of the substrates to the S9 reaction mixture to a final concentration of 2 μM. […] Aliquots ([…]) of the diluted supernatant were analyzed on a Thermo Q-Exactive mass spectrometer as described below. Example F: Liquid Chromatography/Mass Spectroscopy Methods for S9 and Plasma Stability Quantification of test compounds, Reference Compound A (S9 stability assay nucleoside metabolite), and controls was performed by analyte/internal standard peak area ratio (PAR) values measured on a Thermo Q-Exactive mass spectrometer coupled to a Dionex UltiMate 3000 HPLC with a Leap Technologies HTC PAL autosampler. […] Mobile phase A consisted of 0.1% (v/v) formic acid in water. Mobile phase B consisted of 0.1% (v/v) formic acid in acetonitrile. Elution of analytes was achieved by a series of linear gradients of acetonitrile in water containing 0.10% (v/v) formic acid. The mass spectrometer was calibrated on a weekly basis and mass tolerance of 5 ppm was used.

[3] = system: Caco-2 cells (clone C2BBe1); conditions: human
in vitro [4] = conditions: human, plasma

## CC(C)OC(=O)OC[C@H]1O[C@@](C#N)(c2ccc3c(N)ncnn23)[C@@H]2OC(=O)CCCC(=O)O[C@@H]21 [Compound C2, ((7aR,8R,10R,10aR)-10-(4-aminopyrrolo[2,1-f][1,2,4]triazin-7-yl)-10-cyano-2,6-dioxooctahydro-2H-furo[3,4-b][1,4]dioxonin-8-yl)methyl isopropyl carbonate]
SARS-CoV2-NLuc
  EC50: 9600 nM
RSV-Luc5
  EC50: 3350 nM
In vitro [1]
  CC50: > 50 µM
In vitro [2]
  half-life at 2 μM: 0.616 min
[3]; Caco-2
  Caco2 A to B: 1.66
  Caco2 B to A: 7.32
In vitro [4]
  half-life at 2 μM: 7.8 min

## CC(C)OC(=O)OC[C@H]1O[C@@](C#N)(c2ccc3c(N)ncnn23)[C@@H]2OC(=O)CC(C)(C)CC(=O)O[C@@H]21 [Compound C3, ((7aR,8R,10R,10aR)-10-(4-aminopyrrolo[2,1-f][1,2,4]triazin-7-yl)-10-cyano-4,4-dimethyl-2,6-dioxooctahydro-2H-furo[3,4-b][1,4]dioxonin-8-yl)methyl isopropyl carbonate]
SARS-CoV2-NLuc
  EC50: 12000 nM
RSV-Luc5
  EC50: > 50000 nM
In vitro [1]
  CC50: > 50 µM
In vitro [2]
  half-life at 2 μM: 6 min
[3]; Caco-2
  Caco2 A to B: 5.9
  Caco2 B to A: 7.3
In vitro [4]
  half-life at 2 μM: 1240 min

## CC(C)OC(=O)OC[C@H]1O[C@@](C#N)(c2ccc3c(N)ncnn23)[C@@H]2OC(=O)CN(C)CC(=O)O[C@@H]21 [Compound C4, ((7aR,8R,10R,10aR)-10-(4-aminopyrrolo[2,1-f][1,2,4]triazin-7-yl)-10-cyano-4-methyl-2,6-dioxooctahydro-2H-furo[3,4-b][1,4,7]dioxazonin-8-yl)methyl isopropyl carbonate]
SARS-CoV2-NLuc
  EC50: 6730 nM
RSV-Luc5
  EC50: 3120 nM
In vitro [1]
  CC50: > 50 µM
In vitro [2]
  half-life at 2 μM: 0.694 min
[3]; Caco-2
  Caco2 A to B: 0.023
  Caco2 B to A: 2
In vitro [4]
  half-life at 2 μM: 65.6 min

## CCOC(=O)OC[C@H]1O[C@@](C#N)(c2ccc3c(N)ncnn23)[C@@H]2OC(=O)CC(C)(C)CC(=O)O[C@@H]21 [Compound C14, ((7aR,8R,10R,10aR)-10-(4-aminopyrrolo[2,1-f][1,2,4]triazin-7-yl)-10-cyano-4,4-dimethyl-2,6-dioxooctahydro-2H-furo[3,4-b][1,4]dioxonin-8-yl)methyl ethyl carbonate]
SARS-CoV2-NLuc
  EC50: > 50000 nM
RSV-Luc5
  EC50: > 50000 nM
In vitro [1]
  CC50: > 50 µM
In vitro [2]
  half-life at 2 μM: 4.03 min
[3]; Caco-2
  Caco2 A to B: 4.27
  Caco2 B to A: 8.55
In vitro [4]
  half-life at 2 μM: 27.1 min

## N#C[C@@]1(c2ccc3c(N)ncnn23)O[C@H](COC(=O)OC2CCOCC2)[C@H]2OC(=O)CCCC(=O)O[C@H]21 [Compound C16, ((7aR,8R,10R,10aR)-10-(4-aminopyrrolo[2,1-f][1,2,4]triazin-7-yl)-10-cyano-2,6-dioxooctahydro-2H-furo[3,4-b][1,4]dioxonin-8-yl)methyl (tetrahydro-2H-pyran-4-yl) carbonate]
SARS-CoV2-NLuc
  EC50: 14900 nM
RSV-Luc5
  EC50: 20000 nM
In vitro [1]
  CC50: > 50 µM
In vitro [2]
  half-life at 2 μM: 0.605 min
[3]; Caco-2
  Caco2 A to B: 0.68
  Caco2 B to A: 5.08
In vitro [4]
  half-life: 14.1 min

## CN1[C@@H]2CC[C@H]1C[C@@H](OC(=O)OC[C@H]1O[C@@](C#N)(c3ccc4c(N)ncnn34)[C@@H]3OC(=O)CCCC(=O)O[C@@H]31)C2 [Compound C30, ((7aR,8R,10R,10aR)-10-(4-aminopyrrolo[2,1-f][1,2,4]triazin-7-yl)-10-cyano-2,6-dioxooctahydro-2H-furo[3,4-b][1,4]dioxonin-8-yl)methyl ((1R,3s,5S)-8-methyl-8-azabicyclo[3.2.1]octan-3-yl) carbonate formate]
SARS-CoV2-NLuc
  EC50: 42500 nM
RSV-Luc5
  EC50: > 50000 nM
In vitro [1]
  CC50: > 50 µM
In vitro [2]
  half-life at 2 μM: 0.575 min
[3]; Caco-2, 2 h
  Caco2 A to B: 0.02
  Caco2 B to A: 0.42
In vitro [4]
  half-life at 2 μM: 24 min

## COC(=O)[C@H]([C@@H](C)OC(=O)OC[C@H]1O[C@@](C#N)(c2ccc3c(N)ncnn23)[C@@H]2OC(=O)CCCC(=O)O[C@@H]21)N(C)C [Compound C31, (2S,3R)-methyl 3-(((((7aR,8R,10R,10aR)-10-(4-aminopyrrolo[2,1-f][1,2,4]triazin-7-yl)-10-cyano-2,6-dioxooctahydro-2H-furo[3,4-b][1,4]dioxonin-8yl)methoxy)carbonyl)oxy)-2-(dimethylamino)butanoate 2,2,2-trifluoroacetate]
SARS-CoV2-NLuc
  EC50: 6060 nM
RSV-Luc5
  EC50: 9190 nM
In vitro [1]
  CC50: > 50 µM
In vitro [2]
  half-life at 2 μM: 0.57 min
[3]; Caco-2
  Caco2 A to B: 0.49
  Caco2 B to A: 5.62
In vitro [4]
  half-life at 2 μM: 15.5 min

## CC1(C)CC(=O)O[C@H]2[C@@H](OC(=O)C1)[C@](C#N)(c1ccc3c(N)ncnn13)O[C@@H]2COC(=O)OC1CCOCC1 [Compound C33, ((7aR,8R,10R,10aR)-10-(4-aminopyrrolo[2,1-f][1,2,4]triazin-7-yl)-10-cyano-4,4-dimethyl-2,6-dioxooctahydro-2H-furo[3,4-b][1,4]dioxonin-8-yl)methyl (tetrahydro-2H-pyran-4-yl) carbonate]
SARS-CoV2-NLuc
  EC50: > 50000 nM
RSV-Luc5
  EC50: > 50000 nM
In vitro [1]
  CC50: > 50 µM
In vitro [2]
  half-life at 2 μM: 29 min
[3]; Caco-2
  Caco2 A to B: 0.41
  Caco2 B to A: 3.17
In vitro [4]
  half-life: 609 min

## CC1(C)CC(=O)O[C@H]2[C@@H](OC(=O)C1)[C@](C#N)(c1ccc3c(N)ncnn13)O[C@@H]2COC(=O)OC1CCOC1 (stereo partly drawn) [Compound C40, ((7aR,8R,10R,10aR)-10-(4-aminopyrrolo[2,1-f][1,2,4]triazin-7-yl)-10-cyano-4,4-dimethyl-2,6-dioxooctahydro-2H-furo[3,4-b][1,4]dioxonin-8-yl)methyl (tetrahydrofuran-3-yl) carbonate]
SARS-CoV2-NLuc
  EC50: > 50000 nM
RSV-Luc5
  EC50: > 50000 nM
In vitro [1]
  CC50: > 50 µM
In vitro [2]
  half-life at 2 μM: 5.83 min
[3]; Caco-2
  Caco2 A to B: 0.69
  Caco2 B to A: 5.13
In vitro [4]
  half-life at 2 μM: 72.5 min

## CN1[C@@H]2CC[C@H]1C[C@@H](OC(=O)OC[C@H]1O[C@@](C#N)(c3ccc4c(N)ncnn34)[C@@H]3OC(=O)CC(C)(C)CC(=O)O[C@@H]31)C2 [Compound C47, ((7aR,8R,10R,10aR)-10-(4-aminopyrrolo[2,1-f][1,2,4]triazin-7-yl)-10-cyano-4,4-dimethyl-2,6-dioxooctahydro-2H-furo[3,4-b][1,4]dioxonin-8-yl)methyl ((1R,3s,5S)-8-methyl-8-azabicyclo[3.2.1]octan-3-yl) carbonate formate]
SARS-CoV2-NLuc
  EC50: > 50000 nM
RSV-Luc5
  EC50: > 50000 nM
In vitro [1]
  CC50: > 50 µM
In vitro [2]
  half-life at 2 μM: 99.4 min
[3]; Caco-2, 2 h
  Caco2 A to B: 0.04
  Caco2 B to A: 5.19
In vitro [4]
  half-life at 2 μM: 60.2 min

## COC(=O)[C@H]([C@@H](C)OC(=O)OC[C@H]1O[C@@](C#N)(c2ccc3c(N)ncnn23)[C@@H]2OC(=O)CC(C)(C)CC(=O)O[C@@H]21)N(C)C [Compound C48, (2S,3R)-methyl 3-(((((7aR,8R,10R,10aR)-10-(4-aminopyrrolo[2,1-f][1,2,4]triazin-7-yl)-10-cyano-4,4-dimethyl-2,6-dioxooctahydro-2H-furo[3,4-b][1,4]dioxonin-8-yl)methoxy)carbonyl)oxy)-2-(dimethylamino)butanoate]
SARS-CoV2-NLuc
  EC50: > 50000 nM
RSV-Luc5
  EC50: > 50000 nM
In vitro [1]
  CC50: > 50 µM
In vitro [2]
  half-life at 2 μM: 29.5 min
[3]; Caco-2
  Caco2 A to B: 0.22
  Caco2 B to A: 1.81
In vitro [4]
  half-life at 2 μM: 20.3 min

## CC(C)OC(=O)OC[C@H]1O[C@@](C#N)(c2ccc3c(N)ncnn23)[C@@H]2OC(=O)OCCC=CCCOC(=O)O[C@@H]21 [Compound C52, ((12aR,13R,15R,15aR)-15-(4-aminopyrrolo[2,1-f][1,2,4]triazin-7-yl)-15-cyano-2,11-dioxo-4,5,8,9,12a,13,15,15a-octahydrofuro[3,4-d][1,3,6,8]tetraoxacyclotetradecin-13-yl)methyl isopropyl carbonate]
SARS-CoV2-NLuc
  EC50: 7100 nM
RSV-Luc5
  EC50: 1600 nM
In vitro [1]
  CC50: > 50 µM
In vitro [2]
  half-life at 2 μM: 0.6 min
[3]; Caco-2
  Caco2 A to B: 6.77
  Caco2 B to A: 11.87
In vitro [4]
  half-life: 1580 min

## CC(C)OC(=O)OC[C@H]1O[C@@](C#N)(c2ccc3c(N)ncnn23)[C@@H]2OC(=O)OCCCCCCOC(=O)O[C@@H]21 [Compound C53, ((12aR,13R,15R,15aR)-15-(4-aminopyrrolo[2,1-f][1,2,4]triazin-7-yl)-15-cyano-2,11-dioxodecahydrofuro[3,4-d][1,3,6,8]tetraoxacyclotetradecin-13-yl)methyl isopropyl carbonate]
SARS-CoV2-NLuc
  EC50: 9660 nM
RSV-Luc5
  EC50: 1330 nM
In vitro [1]
  CC50: > 50 µM
In vitro [2]
  half-life at 2 μM: 0.691 min
[3]; Caco-2
  Caco2 A to B: 9.28
  Caco2 B to A: 15.92
In vitro [4]
  half-life at 2 μM: 317 min
